{"source": "patent US9161935B2", "about": "(TEVA PHARMACEUTICAL INDUSTRIES, LTD., priority 2012, dated 2015)", "system": "fecal calprotectin", "experiment": "Phase IIa trial CD-LAQ-201: changes in fecal calprotectin levels", "type": "in vivo, human", "settings": "for % of patients with a calprotectin decrease from ≧250 μg/g to below 250 μg/g & greater than 50% reduction: Week 8", "excerpt": "As used herein, “calprotectin” is a calcium and zinc binding anti-microbial protein released by granulocytes. This protein can be detected in stool and its concentration reflects the number of polymorphonuclear leukocytes (PMN), migrating into the gut lumen. It is therefore considered a bio-marker for intestinal inflammation. […] Proportion of subjects in clinical remission (total CDAI score <150) at weeks 4, 6, 8 and 12 (and were not treatment failures). • 2. Proportion of subjects who respond to treatment (decrease from baseline of at least 100 points in CDAI score ore remission) at week 4, 6, 8 and 12. • 3. Time to remission. • 4. Time to response. • 5. C-Reactive Protein (CRP) change from baseline at weeks 2, 4, 6, 8 and 12. • 6. Fecal calprotectin change from baseline to weeks 2, 4, 6, 8 and 12. • 7. Proportion of subjects with a decrease from baseline of at least 50% in the number of open draining fistulas."}
{"smiles": "CCN(C(=O)c1c(O)c2c(Cl)cccc2n(C)c1=O)c1ccccc1", "note": "[laquinimod]", "values": [{"measurement": "% Change from Baseline in fecal calprotectin level at Week 8, Mean ± SD", "setting": "Laq 0.5 mg", "result": "25.5 ± 132.93", "unit": "%"}, {"measurement": "% Change from Baseline in fecal calprotectin level at Week 8, Median", "setting": "Laq 0.5 mg", "result": "−23.1", "unit": "%"}, {"measurement": "% of patients with a calprotectin decrease from ≧250 μg/g to below 250 μg/g & greater than 50% reduction", "setting": "Laq 0.5 mg", "result": 38.9, "unit": "%"}, {"measurement": "% Change from Baseline in fecal calprotectin level at Week 8, Mean ± SD", "setting": "Laq 1.0 mg", "result": "0.2 ± 91.55", "unit": "%"}, {"measurement": "% Change from Baseline in fecal calprotectin level at Week 8, Median", "setting": "Laq 1.0 mg", "result": "−14.4", "unit": "%"}, {"measurement": "% of patients with a calprotectin decrease from ≧250 μg/g to below 250 μg/g & greater than 50% reduction", "setting": "Laq 1.0 mg", "result": 38.9, "unit": "%"}, {"measurement": "% Change from Baseline in fecal calprotectin level at Week 8, Mean ± SD", "setting": "Laq 1.5 mg", "result": "13.9 ± 108.97", "unit": "%"}, {"measurement": "% Change from Baseline in fecal calprotectin level at Week 8, Median", "setting": "Laq 1.5 mg", "result": "−18.7", "unit": "%"}, {"measurement": "% of patients with a calprotectin decrease from ≧250 μg/g to below 250 μg/g & greater than 50% reduction", "setting": "Laq 1.5 mg", "result": 26.7, "unit": "%"}, {"measurement": "% Change from Baseline in fecal calprotectin level at Week 8, Mean ± SD", "setting": "Laq 2.0 mg", "result": "44.3 ± 198.71", "unit": "%"}, {"measurement": "% Change from Baseline in fecal calprotectin level at Week 8, Median", "setting": "Laq 2.0 mg", "result": "−20.1", "unit": "%"}, {"measurement": "% of patients with a calprotectin decrease from ≧250 μg/g to below 250 μg/g & greater than 50% reduction", "setting": "Laq 2.0 mg", "result": 36.4, "unit": "%"}, {"measurement": "effect on fecal calprotectin", "setting": "all doses (0.5-2 mg/day)", "result": "reduced fecal calprotectin"}, {"measurement": "objective measures of intestinal inflammation in active CD", "setting": "all doses (LAQ 0.5-2 mg/day)", "result": "reduce objective measures of intestinal inflammation"}, {"measurement": "percentage of patients with fecal calprotectin ≧250 μg/g at baseline showing at least a 50% reduction and levels <250 μg/g at Week 8", "setting": "laquinimod groups (all doses), pooled placebo 13.6%", "result": "26.7-38.9%"}]}
